pEC50, pIC50: −log10 of the molar value.
Key:
mice = details: mouse, in vivo
5HT2A sensor [1] = type: cell-based
5HT2A sensor [2] = type: cell-based; remark: listed apart in the source
5-HT2A [3] = target: T1, 5-HT2A (Homo sapiens, UniProt P28223); test: Serotonin 5-HT2A in vitro cellular IPOne agonism assay; type: cell-based; parameters: host or cells: CHO-K1; details: CHO-K1 cells, 60 min
Experimental: (§1) Serotonin 5-HT2A In Vitro Cellular IPOne Agonism Assay. The 5-HT2A IPOne HTRF assay was performed at Epics Therapeutics S.A. (Belgium, FAST-0505I) using conventional methods. Briefly, CHO-K1 cells expressing human recombinant 5-HT2A receptor grown to mid-log phase in culture media without antibiotics were detached with PBS-EDTA, centrifuged, and resuspended in medium without antibiotics buffer. 20,000 cells are distributed in a 96 well plate and incubated overnight at 37° C. with 5% CO2.
For agonist testing, the medium was removed and 20 μl of assay buffer plus 20 μl of test compound or reference agonist were added in each well. The plate was incubated for 60 min. at 37° C. with 5% CO2.
After addition of the lysis buffer containing IP1-d2 and anti-IP1 cryptate detection reagents, plates were incubated 1-hour at room temperature, and fluorescence ratios were measured according to the manufacturer specification, with the HTRF kit.

5-HT2A [4] = target: T1, 5-HT2A; test: Serotonin 5-HT2A in vitro radioligand binding competition assay; parameters: purchased Epics Therapeutics S.A. (Belgium), contract assay FAST-0505B; host or cells: membrane extracts; details: [3H]-DOI radiotracer, membrane extracts, read-out: 5HT2A R[…] ACTIVITY
Experimental: Serotonin 5-HT2A In Vitro Radioligand Binding Competition Assay. The 5-HT2A radioligand binding competition assay was performed at Epics Therapeutics S.A. (Belgium, FAST-0505B) using conventional methods. Briefly, competition binding was performed in duplicate in the wells of a 96 well plate (Master Block, Greiner, 786201) containing binding buffer (optimized for each receptor), membrane extracts (amount of protein/well optimized for each receptor), radiotracer [^3H]-DOI (final concentration optimized for each receptor) and test compound. Nonspecific binding was determined by co-incubation with 200-fold excess of cold competitor. The samples were incubated in a final volume of 0.1 ml at a temperature and for a duration optimized for each receptor and then filtered over filter plates. Filters were washed six times with 0.5 ml of ice-cold washing buffer (optimized for each receptor) and 50 μl of Microscint 20 (Packard) were added in each well. The plates were incubated 15 min on an orbital shaker and then counted with a TopCount™ for 1 min/well.

5-HT2A [5] = target: T1, 5-HT2A; test: Serotonin 5-HT2A in vitro cellular IPOne antagonism assay; type: cell-based; parameters: host or cells: CHO-K1; details: CHO-K1 cells; reference agonist a-Me-5HT
Experimental: as §1, with “Antagonism” for “Agonism”, “FAST-0505I) in antagonism mode” for “FAST-0505I)”
For antagonist testing, a reference agonist a-Me-5HT was added and fluorescence signal monitored for several minutes, followed by addition of 20 μl of assay buffer plus 20 μl of test compound or reference antagonist ketanserin, in each well. The plate was incubated for 60 min. at 37° C. with 5% CO2.
After addition of the lysis buffer containing IP1-d2 and anti-IP1 cryptate detection reagents, plates were incubated 1-hour at room temperature, and fluorescence ratios are measured according to the manufacturer specification, with the HTRF kit.

T1 sequence (P28223 whole entry): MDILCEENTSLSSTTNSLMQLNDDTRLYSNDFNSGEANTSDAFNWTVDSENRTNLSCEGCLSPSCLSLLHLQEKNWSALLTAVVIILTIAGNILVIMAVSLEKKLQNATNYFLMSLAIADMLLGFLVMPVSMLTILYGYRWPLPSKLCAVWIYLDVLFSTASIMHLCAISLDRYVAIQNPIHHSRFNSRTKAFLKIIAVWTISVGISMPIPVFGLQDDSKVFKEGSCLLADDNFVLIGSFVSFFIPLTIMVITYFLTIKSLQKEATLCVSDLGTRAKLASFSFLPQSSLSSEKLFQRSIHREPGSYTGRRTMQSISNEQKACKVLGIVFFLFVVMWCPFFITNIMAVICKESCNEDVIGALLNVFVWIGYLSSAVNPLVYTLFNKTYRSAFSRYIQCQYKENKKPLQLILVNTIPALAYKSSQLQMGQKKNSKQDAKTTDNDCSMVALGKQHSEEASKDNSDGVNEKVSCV

Row | Compound | activation of the 5HT2A sensor assay (5HT2A sensor [1]) | pIC50 (5-HT2A [5]) | pEC50 (5-HT2A [3]; benzothiophenes) | pIC50 (5-HT2A [4]; benzothiophenes) | other results
1 | 5-MeO-DMT [Compound 5-MeO-DMT] | activate the 5HT2A sensor assay in agonist mode |  |  |  | head-twitch response (HTR) (mice): robust, dose-dependent head-twitch response
2 | CCN(CC)C(=O)[C@@H]1C=C2c3cccc4[nH]c(Br)c(c34)C[C@H]2N(C)C1 [BOL148] | do not activate the 5HT2A sensor assay in agonist mode |  |  |  | competition with 5-HT at 5HT2A in the sensor assay (5HT2A sensor [2]): can compete with 5HT binding to 5HT2A
3 | CCN(CC)CCc1c[nH]c2cc(F)ccc12 [Compound 6-F-DET, 6-F-DET] | do not activate the 5HT2A sensor assay in agonist mode |  |  |  | competition with 5-HT at 5HT2A in the sensor assay (5HT2A sensor [2]): can compete with 5HT binding to 5HT2A
4 | COc1cccc2oc3c(c12)CN(C1CCC1)CCC3 [Compound 14, 2-cyclobutyl-10-methoxy-2,3,4,5-tetrahydro-1H-benzofuro[3,2-c]azepine] |  | 6.00 to 7.00 |  |  | pEC50 (5-HT2A [3]; benzofurans): 5.00 to 6.00; pIC50 (5-HT2A [4]; benzofurans): 5.00 to 6.00
5 | CN1CCc2oc3cc(F)ccc3c2CC1 [Compound 23, 8-fluoro-3-methyl-2,3,4,5-tetrahydro-1H-benzofuro[2,3-d]azepine] |  | 6.00 to 7.00 |  |  | pEC50 (5-HT2A [3]; benzofurans): 6.00 to 7.00; pIC50 (5-HT2A [4]; benzofurans): 6.00 to 7.00
6 | c1ccc2c3c(oc2c1)CCN(C1CCC1)CC3 [Compound 28, 3-cyclobutyl-2,3,4,5-tetrahydro-1H-benzofuro[2,3-d]azepine] |  | < 5.00 |  |  | pEC50 (5-HT2A [3]; benzofurans): < 5.00; pIC50 (5-HT2A [4]; benzofurans): 5.00 to 6.00
7 | CN1CCc2oc3ccccc3c2CC1 [Compound 30, 3-methyl-2,3,4,5-tetrahydro-1H-benzofuro[2,3-d]azepine] |  | 6.00 to 7.00 |  |  | pEC50 (5-HT2A [3]; benzofurans): < 5.00; pIC50 (5-HT2A [4]; benzofurans): 6.00 to 7.00
8 | Fc1ccc2c3c(sc2c1)CCN(C1CCC1)CC3 [Compound 32, 3-cyclobutyl-8-fluoro-2,3,4,5-tetrahydro-1H-benzo[4,5]thieno[2,3-d]azepine] |  | 7.00 to 8.00 | < 5.00 | 7.00 to 8.00 | 
9 | CN1CCc2sc3cc(F)ccc3c2CC1 [Compound 33, 8-fluoro-3-methyl-2,3,4,5-tetrahydro-1H-benzo[4,5]thieno[2,3-d]azepine] |  | 7.00 to 8.00 | 7.00 to 8.00 | 7.00 to 8.00 | 
10 | COc1ccc2c3c(sc2c1)CCN(C)CC3 [Compound 34, 8-methoxy-3-methyl-2,3,4,5-tetrahydro-1H-benzo[4,5]thieno[2,3-d]azepine] |  | 6.00 to 7.00 | 5.00 to 6.00 | 5.00 to 6.00 | 
11 | c1ccc(COc2cccc3oc4c(c23)CCNCC4)cc1 [Compound 47, 10-(benzyloxy)-2,3,4,5-tetrahydro-1H-benzofuro[2,3-d]azepine] |  | 6.00 to 7.00 |  |  | pEC50 (5-HT2A [3]; benzofurans): 5.00 to 6.00; pIC50 (5-HT2A [4]; benzofurans): 6.00 to 7.00
12 | CN1CCc2sc3ccccc3c2CC1 [Compound 72, 3-methyl-2,3,4,5-tetrahydro-1H-benzo[4,5]thieno[2,3-d]azepine] |  | 7.00 to 8.00 | 6.00 to 7.00 | 7.00 to 8.00 | 
13 | c1ccc2c3c(sc2c1)CCN(C1CCC1)CC3 [Compound 73, 3-cyclobutyl-2,3,4,5-tetrahydro-1H-benzo[4,5]thieno[2,3-d]azepine] |  | 6.00 to 7.00 | < 5.00 | 6.00 to 7.00 | 
14 | CN1CCc2sc3cc(OC(F)(F)F)ccc3c2CC1 [Compound 75, 3-methyl-8-(trifluoromethoxy)-2,3,4,5-tetrahydro-1H-benzo[4,5]thieno[2,3-d]azepine] |  | 6.00 to 7.00 | < 5.00 | 5.00 to 6.00 | 
15 | CN(C)CCc1c[nH]c2ccccc12 [DMT, N,N-dimethyltryptamine] | activate the 5HT2A sensor assay in agonist mode |  |  |  | 
16 | O=C(c1ccc(F)cc1)C1CCN(CCn2c(=O)[nH]c3ccccc3c2=O)CC1 [Ketanserin] | do not activate the 5HT2A sensor assay in agonist mode |  |  |  | competition with 5-HT at 5HT2A in the sensor assay (5HT2A sensor [2]): can compete with 5HT binding to 5HT2A
17 | CCN(CC)C(=O)[C@@H]1C=C2c3cccc4[nH]cc(c34)C[C@H]2N(C)C1 [LSD] | activate the 5HT2A sensor assay in agonist mode |  |  |  | 
18 | DOI | activate the 5HT2A sensor assay in agonist mode |  |  |  | 
19 | L-MDMA | do not activate the 5HT2A sensor assay in agonist mode |  |  |  | 
20 | R-MDMA | do not activate the 5HT2A sensor assay in agonist mode |  |  |  | 

Reference: patent publication US20250051346A1 (priority 2021, published 2025)
